The source of these data is US9662327B2 (AGIOS PHARMACEUTICALS, INC, priority 2011, dated 2017).

One experiment deals with IDH1 R132H (Homo sapiens (Human), UniProt O75874, R132H). Nature of the experiment: Assays for IDH1 R132H Inhibitors (NADPH/aKG, resazurin detection). To be noted: IDH1 R132H enzyme, Table 2; read-out: IDHR132H Activity. It counts as biochemical. The procedure, abridged: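 Mutant enzyme in 150 mM NaCl, 10 mM MgCl2, 20 mM Tris pH 7.5, 0.03% BSA; compound in DMSO added to substrate mix of 8 uM NADPH and 2 mM aKG. Reaction ran 50 min at room temperature, then resazurin detection mix (30 μM) added for 5 min at room temperature.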
Sequence of IDH1 R132H (O75874 whole entry R132H): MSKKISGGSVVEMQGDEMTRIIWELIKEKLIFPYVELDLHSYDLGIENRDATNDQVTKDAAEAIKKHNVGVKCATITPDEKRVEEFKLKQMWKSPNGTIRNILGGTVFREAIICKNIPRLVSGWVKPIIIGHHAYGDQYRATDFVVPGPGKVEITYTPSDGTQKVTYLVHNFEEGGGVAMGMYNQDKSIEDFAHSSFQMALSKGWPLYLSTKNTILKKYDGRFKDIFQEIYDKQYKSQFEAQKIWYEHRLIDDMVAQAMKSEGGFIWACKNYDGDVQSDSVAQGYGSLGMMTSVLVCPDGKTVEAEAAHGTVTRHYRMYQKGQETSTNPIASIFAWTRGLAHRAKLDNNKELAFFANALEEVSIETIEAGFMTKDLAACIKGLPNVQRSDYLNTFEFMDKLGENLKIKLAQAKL
For orientation: The colour change of resazurin is a common sign of viable cells or microbes.
`CCOC(=O)C1CN(c2nc(C3CCCCC3)c3c(c2C#N)CCOC3)CCN1C(=O)CCOC` (centres unmarked) [Compound 278, ethyl 4-(5-cyano-8-cyclohexyl-3,4-dihydro-1H-pyrano[3,4-c]pyridin-6-yl)-1-(3-methoxypropanoyl) piperazine-2-carboxylate]: the IC50 was in the range of 1 to 10 µM. On the same count and under the same terms, under `CC1CN(c2nc(C3CCCCC3)c3c(c2C#N)CCOC3)CCN1C(=O)c1ccco1` (centres unmarked) [Compound 132, 8-cyclohexyl-6-(4-(furan-2-carbonyl)-3-methylpiperazin-1-yl)-3,4-dihydro-1H-pyrano[3,4-c]pyridine-5-carbonitrile] stands 1 to 10 µM. As for `C[C@@H]1CN(c2nc(C3CCCCC3)c3c(c2C#N)CCOC3)CCN1C(=O)Cc1cccc(F)c1` [Compound 191, (R)-8-cyclohexyl-6-(4-(2-(3-fluorophenyl)acetyl)-3-methylpiperazin-1-yl)-3,4-dihydro-1H-pyrano[3,4-c]pyridine-5-carbonitrile], the IC50 was in the range of 1 to 10 µM. The same measure, in the same setting: under `CC(C)[C@@H]1CN(c2nc(C3CC3)c3c(c2C#N)CC(C)(C)OC3)CCN1C(=O)Cc1ccccn1` [Compound 211] stands under 0.5 µM; under `CC(=O)OCC(C)(C)C(=O)N1CCN(c2nc(C3CC3)c3c(c2C#N)CC(C)(C)OC3)C[C@H]1C(C)C` [Compound 419, (R)-3-(4-(5-cyano-8-cyclopropyl-3,3-dimethyl-3,4-dihydro-1H-pyrano[3,4-c]pyridin-6-yl)-2-isopropylpiperazin-1-yl)-2,2-dimethyl-3-oxopropyl acetate], 1 to 10 µM; under `CC1CN(c2nc(C3CCCCC3)c3c(c2C#N)CCOC3)CCN1C(=O)c1ccoc1` (centres unmarked) [Compound 133, 8-cyclohexyl-6-(4-(furan-3-carbonyl)-3-methylpiperazin-1-yl)-3,4-dihydro-1H-pyrano[3,4-c]pyridine-5-carbonitrile], 1 to 10 µM. Same read-out and setting: the result for `C=CCNC(=O)N1CCN(c2nc(C(C)C)c3c(c2C#N)CC(C)(C)OC3)CC1C(=O)OCC` (centres unmarked) [Compound 331, ethyl 1-(allylcarbamoyl)-4-(5-cyano-8-isopropyl-3,3-dimethyl-3,4-dihydro-1H-pyrano[3,4-c]pyridin-6-yl)piperazine-2-carboxylate] reads 1 to 10 µM. Consider `C[C@@H]1CN(c2nc(C3CCCCC3)c3c(c2C#N)CC(C)(C)OC3)CCN1C(=O)c1ccoc1` [Compound 151, (R)-8-cyclohexyl-6-(4-(furan-3-carbonyl)-3-methylpiperazin-1-yl)-3,3-dimethyl-3,4-dihydro-1H-pyrano[3,4-c]pyridine-5-carbonitrile], for which the IC50 was 1 to 10 µM. `CCOC(=O)C1CN(c2nc(C(C)C)c3c(c2C#N)CC(C)(C)OC3)CCN1C(=O)Cc1cccs1` (centres unmarked) [Compound 332, ethyl 4-(5-cyano-8-isopropyl-3,3-dimethyl-3,4-dihydro-1H-pyrano[3,4-c]pyridin-6-yl)-1-(2-(thiophen-2-yl)acetyl)piperazine-2-carboxylate]: the IC50 fell in the range of 0.5 to 1 µM. The same measure, in the same setting: under `CCOc1ccc(NC(=O)N2CCN(c3nc(C4CC4)c4c(c3C#N)CC(C)(C)OC4)C[C@H]2C(C)C)cc1` [Compound 282, (R)-4-(5-cyano-8-cyclopropyl-3,3-dimethyl-3,4-dihydro-1H-pyrano[3,4-c]pyridin-6-yl)-N-(4-ethoxyphenyl)-2-isopropylpiperazine-1-carboxamide] stands 1 to 10 µM; under `CCOC(=O)C1CN(c2nc(C3CCCCC3)c3c(c2C#N)CCOC3)CCN1C(=O)OCCOC` (centres unmarked) [Compound 315, 2-ethyl-1-(2-methoxyethyl) 4-(5-cyano-8-cyclohexyl-3,4-dihydro-1H-pyrano[3,4-c]pyridin-6-yl)-piperazine-1,2-dicarboxylate], 1 to 10 µM; under `CC(C)c1nc(N2CCN(C(=O)Cc3ccccc3F)[C@H](C)C2)c(C#N)c2c1COC(C)(C)C2` [Compound 219, (R)-6-(4-(2-(2-fluorophenyl)acetyl)-3-methylpiperazin-1-yl)-8-isopropyl-3,3-dimethyl-3,4-dihydro-1H-pyrano[3,4-c]pyridine-5-carbonitrile], 1 to 10 µM. Same read-out and setting: the result for `C[C@@H]1CN(c2nc(C3CCCC3)c3c(c2C#N)CCOC3)C[C@H](C)N1C(=O)NC1CCCCC1` [Compound 127, (2S,6R)-4-(5-cyano-8-cyclopentyl-3,4-dihydro-1H-pyrano[3,4-c]pyridin-6-yl)-N-cyclohexyl-2,6-dimethylpiperazine-1-carboxamide] reads 1 to 10 µM; that for `COc1cccc(CC(=O)N2CCN(c3nc(C4CC4)c4c(c3C#N)CC(C)(C)OC4)C[C@H]2C(C)C)c1` [Compound 254], 0.5 to 1 µM. The same measure, in the same setting: under `C[C@@H]1CN(c2nc(C3CCCCC3)c3c(c2C#N)CCOC3)CCN1S(C)(=O)=O` [Compound 336, (R)-8-cyclohexyl-6-(3-methyl-4-(methylsulfonyl)piperazin-1-yl)-3,4-dihydro-1H-pyrano[3,4-c]pyridine-5-carbonitrile] stands 1 to 10 µM. As to `CC(C)[C@@H]1CN(c2nc(C3CC3)c3c(c2C#N)CC(C)(C)OC3)CCN1C(=O)Cc1cccnc1` [Compound 265], the IC50 was under 0.5 µM. Still for that read-out and setting: under `CC1(C)Cc2c(C#N)c(N3CCN(C(=O)c4ccoc4)[C@@H](c4ccccc4)C3)nc(C3CC3)c2CO1` [Compound 275] stands 1 to 10 µM. As to `CCOC(=O)C1CN(c2nc(C3CCCCC3)c3c(c2C#N)CCOC3)CCN1C(=O)c1ccoc1C` (centres unmarked) [Compound 277, ethyl 4-(5-cyano-8-cyclohexyl-3,4-dihydro-1H-pyrano[3,4-c]pyridin-6-yl)-1-(2-methylfuran-3-carbonyl)piperazine-2-carboxylate], the IC50 lay in the range of 1 to 10 µM. Still for that read-out and setting: the result for `CSCCC(=O)N1CCN(c2nc(C3CC3)c3c(c2C#N)CC(C)(C)OC3)C[C@H]1C(C)C` [Compound 269, (R)-8-cyclopropyl-6-(3-isopropyl-4-(3-(methylthio)propanoyl)piperazin-1-yl)-3,3-dimethyl-3,4-dihydro-1H-pyrano[3,4-c]pyridine-5-carbonitrile] reads under 0.5 µM. Still for that read-out and setting: the result for `COCCN1CCN(c2nc(C3CC3)c3c(c2C#N)CC(C)(C)OC3)C[C@H]1C(C)C` [Compound 369, (R)-8-cyclopropyl-6-(3-isopropyl-4-(2-methoxyethyl)piperazin-1-yl)-3,3-dimethyl-3,4-dihydro-1H-pyrano[3,4-c]pyridine-5-carbonitrile] reads 1 to 10 µM. With `Cc1nccn1CC(=O)N1CCN(c2nc(C3CC3)c3c(c2C#N)CC(C)(C)OC3)C[C@H]1C(C)C` [Compound 380, (R)-8-cyclopropyl-6-(3-isopropyl-4-(2-(2-methyl-1H-imidazol-1-yl)acetyl)piperazin-1-yl)-3,3-dimethyl-3,4-dihydro-1H-pyrano[3,4-c]pyridine-5-carbonitrile], the IC50 lay in the range of 1 to 10 µM. On to `CC(C)[C@@H]1CN(c2nc(C3CCCCC3)c3c(c2C#N)CCOC3)CCN1C(=O)c1ccco1` [Compound 182, (R)-8-cyclohexyl-6-(4-(furan-2-carbonyl)-3-isopropylpiperazin-1-yl)-3,4-dihydro-1H-pyrano[3,4-c]pyridine-5-carbonitrile], for which the IC50 fell in the range of 1 to 10 µM.

Regarding `CC(C)c1nc(N2CCN(C(=O)NC3CCCCC3)CC2)c(C#N)c2c1CCCC2` [Compound 115, 4-(4-cyano-1-isopropyl-5,6,7,8-tetrahydroisoquinolin-3-yl)-N-cyclohexylpiperazine-1-carboxamide], the IC50 was 1 to 10 µM. Still for that read-out and setting: the result for `CC(C)[C@@H]1CN(c2nc(C3CC3)c3c(c2C#N)CC(C)(C)OC3)CCN1C(=O)Nc1ccc(F)cc1` [Compound 283] reads 1 to 10 µM; that for `C[C@@H]1CN(c2nc(C3CC3)c3c(c2C#N)CC(C)(C)OC3)[C@@H](C)CN1C(=O)c1ccoc1` [Compound 308, 8-cyclopropyl-6-((2S,5R)-4-(furan-3-carbonyl)-2,5-dimethylpiperazin-1-yl)-3,3-dimethyl-3,4-dihydro-1H-pyrano[3,4-c]pyridine-5-carbonitrile], 1 to 10 µM; that for `CC[C@@H]1CN(c2nc(C3CC3)c3c(c2C#N)CC(C)(C)OC3)CCN1C(=O)Cc1ccccc1OC` [Compound 295], 0.5 to 1 µM. Regarding `CSCCC(=O)N1CCN(c2nc(C3CC3)c3c(c2C#N)CC(C)(C)OC3)CC1(C)C` [Compound 320, 8-cyclopropyl-6-(3,3-dimethyl-4-(3-(methylthio)propanoyl)piperazin-1-yl)-3,3-dimethyl-3,4-dihydro-1H-pyrano[3,4-c]pyridine-5-carbonitrile], the IC50 is 1 to 10 µM. Same read-out and setting: the result for `COCC1CN(c2nc(C3CC3)c3c(c2C#N)CC(C)(C)OC3)CCN1C(=O)c1ccoc1` (centres unmarked) [Compound 402, 8-cyclopropyl-6-(4-(furan-3-carbonyl)-3-(methoxymethyl)piperazin-1-yl)-3,3-dimethyl-3,4-dihydro-1H-pyrano[3,4-c]pyridine-5-carbonitrile] reads 1 to 10 µM; that for `CC(C)c1nc(N2CCN(C(=O)c3cscn3)[C@H](C)C2)c(C#N)c2c1COC(C)(C)C2` [Compound 252, (R)-8-isopropyl-3,3-dimethyl-6-(3-methyl-4-(thiazole-4-carbonyl)piperazin-1-yl)-3,4-dihydro-1H-pyrano[3,4-c]pyridine-5-carbonitrile], 1 to 10 µM; that for `CON(C)CC(=O)N1CCN(c2nc(C3CC3)c3c(c2C#N)CC(C)(C)OC3)C[C@H]1C(C)C` [Compound 338], 1 to 10 µM.

Regarding `CC(C)c1nc(N2CCN(C(=O)C(=O)c3ccccc3)[C@H](C)C2)c(C#N)c2c1COC(C)(C)C2` [Compound 157, (R)-8-isopropyl-3,3-dimethyl-6-(3-methyl-4-(2-oxo-2-phenylacetyl)piperazin-1-yl)-3,4-dihydro-1H-pyrano[3,4-c]pyridine-5-carbonitrile], the IC50 lay within 1 to 10 µM.

The experiment is the same for the next values; noted with them: IDH1 R132H enzyme, Table 3; read-out: R132H IC50.
`CCCCNC(=O)C(=O)CCC(=O)N1CCN(c2nc(C3CC3)c3c(c2C#N)CC(C)(C)OC3)C[C@H]1C(C)C` [Compound 467, (R)—N-butyl-5-(4-(5-cyano-8-cyclopropyl-3,3-dimethyl-3,4-dihydro-1H-pyrano[3,4-c]pyridin-6-yl)-2-isopropylpiperazin-1-yl)-2,5-dioxopentanamide]: the IC50 fell in the range of 0.5 to 1 µM.
